Reference: patent US6413948B1, “Pharmaceutical compositions and methods of effecting a neuronal activity in an animal using naaladase inhibitors” (Guilford Pharmaceuticals Inc., priority 1996, dated 2002)

How the values were obtained:
[1] = test system: rats which had sustained dynorphin-induced spinal cord injury; assay: In vivo assay on dynorphin-induced spinal cord injury; design: species or system Sprague-Dawley rats
Protocol: Dynorphin-induced spinal cord injury was performed according to Long et al., JPET, Vol. 269, No. 1, pp. 358-366 (1993). In brief, spinal subarachnoid injections were delivered using 30-gauge needles inserted between the L4-L5 vertebrae of male Sprague-Dawley rats (300-350 g). The rats were anesthetized with halothane and dorsal midline incisions were made immediately rostral to the pelvic girdle. By using the vertebral processes as guides, the needle was advanced to pass into the subarachnoid space surrounding the cauda equina. Correct needle pement was verified by CSF from the needle after its insertion. […] After injections, the incisions were treated with the topical antibacterial furazolidone and closed with wound clips. […]
Neurological function was evaluated using a 5-point ordinal scale, with scores being assigned as follows: 4=normal motor function; 3=mild paraparesis, with the ability to support weight and walk with impairment; 2=paraparesis, with the ability to make walking movements without fully supporting weight; 1=severe paraparesis, in which rats could make limited hind limb movement, but not walking movement; and 0=flaccid paralysis, with complete absence of any hind limb movement. […]
Differences in the neurological scores among treatment groups were determined by means of the Mann-Whitney U test or the Kruskal-Wallis test.

[2] = test system: spinal cord organotypic cultures; assay: Spinal cord culture model of ALS (THA toxicity, ChAT activity); assay type: cell-based, rats
Protocol: Organotypic cultures were prepared from lumbar spinal cord of 8 day old rats, as described by Rothstein et al., J. Neurochem., Vol. 65, No. 2 (1995), and Rothstein et al., Proc. Natl. Acad. Sci. USA, Vol. 90, pp. 6591-6595 (July 1993). In brief, lumbar spinal cords were removed and sliced into 300 […] sections, and five slices were placed on Millipore CM semipermeable 30-mm-diameter membrane inserts. The inserts were placed on 1 ml of culture medium in 35-mm-diameter culture wells. Culture medium consisted of 50% minimal essential medium and phosphate-free HEPES (25 mM), 25% heat-inactivated horse serum, and 25% Hanks' balanced salt solution (GIBCO) supplemented with D-glucose (25.6 mg/ml) and glutamine (2 mM), at a final pH of 7.2. Antibiotic and antifungal agents were not used. Cultures were incubated at 37° C. in 5% CO2 containing humidified environment (Forma Scientific). Culture medium, along with any added pharmacological agents, was changed twice weekly.
Drugs were incubated for an additional 13 to 20 days with the 100 μM THA. At the end of this period, cultures were collected assayed for ChAT activity as described below.
To determine choline acetyltransferase (ChAT) activity, the spinal cord tissues in each dish (five slices) were pooled and frozen (−75° C.) until assay. ChAT activity was measured radiometrically by described methods using [^3H] acetyl-CoA (Amersham; Fonnum, 1975). Protein content of tissue homogenate was determined by a Coomassi Protein Assay kit (Pierce, Rockford, Ill.).

mice = assay: In vivo toxicity of NAALADase inhibitors in mice
Text: The mice were subsequently observed two times per day for 5 consecutive days.

[3] = test system: Sprague-Dawley rats, 2 hour transient middle cerebral artery occlusion (MCAO); assay: In vivo assay on brain injury following MCAO in Sprague-Dawley rats; conditions: 100 mg/kg IP then 20 mg/kg/hr IV for 4 hours
Protocol: In the control group (n=8), the rats received an IP injection of saline 30 minutes post-occlusion followed by IV saline infusion at a rate of 0.5 ml/hr. […] There was a 15 minute delay between IP and IV treatments for each rat. Twenty two hours following the reperfusion, the rats were euthanized and their brains were removed. Seven coronal sections (2 mm thick) were taken and stained with 1% solution of 2,3,5-triphenyltetraxolium chloride (TTC) for 20 minutes and then fixed in 10% formalin. The anterior and posterior surface of the most rostral brain section and the posterior surface of each of the other 6 sections were imaged. The quantification of infarct size of each brain was obtained using a computer aided-digital imaging analysis system (LOATS). The brain regions completely lacking TTC-staining were characterized as representative of infarcted tissue. The total infarct volume for each rat was calculated by numeric integration of the respective sequential brain areas.
Male Sprague-Dawley rats (260-320 g) were used. Prior to the experiment, the rats were individually housed and allowed free access to food and water. Each rat received two surgeries: jugular vein cannulation for IV infusion and MCAO. During surgeries, the rat was anesthetized with […] delivered in oxygen via an inhalation mask. The body temperature was monitored and regulated at normothermic level using a homeothermic heating system. First, a PE-50 polyethylene catheter was inserted into the right jugular vein. One hour later, the rat was reanesthetized for MCAO surgery. The MCAO was achieved using the endovascular suture method described by Long et al., Stroke, Vol. 20, pp. 84-91 (1989). Specifically, the right external carotid artery (ECA) was exposed, coagulated and transected. A 3-0 monofilament nylon suture with a blunted tip was introduced into the proximal stump of the ECA via an arteriotomy and advanced 20 mm from the carotid bifurcation until it lodged in the proximal region of the anterior cerebral artery, thereby occluding the origin of the MCA. The rats were allowed to wake up; 2 hours later, the rats were reanesthetized for reperfusion, during which the nylon suture was retracted to the stump of the ECA allowing blood recirculation to the MCA.

MPTP lesioned mice = assay: In vivo assay on Parkinson's Disease (MPTP lesioned mice, TH immunostaining); design: species or system CD1 white mice
Protocol: MPTP lesioning of dopaminergic neurons in mice was used as an animal model of Parkinson's Disease, as described by Steiner, Proc. Natl. Acad. Sci., Vol. 94, pp. 2019-2024 (March 1997). In brief, four week old male CD1 white mice were dosed IP with 30 mg/kg of MPTP for 5 days. […] At 18 days following MPTP treatment, the mice were sacrificed and their brains were removed and sectioned. Immunostaining was performed on saggital and coronal brain sections using anti-tyrosine hydroxylase (TH) antibodies to quantitate survival and recovery of dopaminergic neurons.

cortical cell cultures = assay: In vitro assay of NAALADase inhibitors on ischemia (potassium cyanide and 2-deoxyglucose, LDH release); assay type: cell-based, rats
Protocol: The methods for this assay are described in detail below.
Dissociated cortical cell cultures are prepared using the papain-dissociation method of Heuttner and Baughman (1986) as modified by Murphy and Baraban (1990). […] Fetuses of embryonic day 17 are removed from timed pregnancy rats (Harlan Sprague Dawley). The cortex is rapidly dissected out in Dulbecco's phosphate-buffered saline, stripped of meninges, and incubated in a papain solution for 15 minutes at 37° C. The tissue is then mechanically triturated and pelleted at 500 g (1000-2000 rpm on swinging bucket Beckman). The pellet is resuspended in a DNAase solution, triturated with a 10 ml pipette ×15-20, layered over a “10×10” solution containing albumin and trypsin inhibitor (see TABLE VII for an example of a “10×10” solution), repelleted, and resuspended in a plating medium containing 10% fetal bovine serum (HyClone A-1111-L), 5% heat-inactivated Equine serum (HyClone A-3311-L), and 84% modified Earle's basal medium (MEM) (Gibco 51200-020) with high glucose (4.5 g/L), and 1 g/L NaHCO3. Each 24-well plate is pretreated with poly-D-lysine (0.5 ml/well of 10 μg/ml) for 1 h and rinsed with water before plating. Cultures are plated at 2.5×10^6 cells/ml with each well of a 24 well plate receiving 500 μl/well. Alternatively, 35 mm dishes can be plated at 2 ml/dish, 6 well plates at 2 ml/well, or 12 well plates at 1 ml/well. After plating, 50% of the medium is changed every 3-4 days with growth serum containing 5% heat-inactivated Equine serum (HyClone A3111-L), 95% modified Earle's basal medium (MEM)(Gibco 51200-020), and 1% L-Glutamine (Gibco 25030-081). Experiments are performed after 21 days in cultures. Cultures are maintained in a 5% CO2 atmosphere at 37° C.
Twenty-one to twenty-four days following the initial cortical cell plating, the experiment is performed. The cultures are washed three times in HEPES buffered saline solution containing no phosphate. […] At the end of 24 hours, the cultures are analyzed for release of the cytosolic enzyme lactate dehydrogenase (LDH), a standard measure of cell lysis. LDH measurements are performed according to the method of Koh and Choi, J. Neuroscience Methods (1987).
Release of the cytosolic enzyme lactate dehydrogenase (LDH), a standard measure of cell lysis, is used to quantify injury (Koh and Choi, 1987). LDH-activity measurements are normalized to control for variability between culture preparations (Koh and Choi, 1987). […] This control measurement is subtracted from each experimental point. […] Only main effects of NAALADase inhibitors are considered; interactions between dose and condition are not examined statistically.

SMILES: O=C(O)CCC(CP(=O)(O)O)C(=O)O (centres unmarked) [2-(phosphonomethyl)pentanedioic acid]
- motor scores (in words) ([1]; co-administered with dynorphin A, 24-hour post-injection, vs vehicle, p<0.05): significant improvement in motor scores
- rats ambulatory ([1]; co-treated with dynorphin A, 24 hours post-injection, 15 rats): 73%
- ChAT Activity (% of Control) ([2]; Table XII, THA (100 μM) and 1 nM, 14 days): −23.9 ± 18.6 % of Control
- ChAT Activity (% of Control) ([2]; Table XII, THA (100 μM) and 10 nM, 14 days): 23.1 ± 12.5 % of Control
- ChAT Activity (% of Control) ([2]; Table XII, THA (100 μM) and 100 nM, 14 days): 87.5 ± 21.7 % of Control
- ChAT Activity (% of Control) ([2]; Table XII, THA (100 μM) and 1 μM, 14 days): 187.7 ± 32.8 % of Control
- ChAT Activity (% of Control) ([2]; Table XII, THA (100 μM) and 10 μM, 14 days): 128.7 ± 17.2 % of Control
- protection of the cultures from THA toxicity (in words) ([2]; co-incubation with THA, 100 nM-10 μM): significantly protected
- ChAT Activity (% of Control) ([2]; compound alone): 108 ± 18.4 % of Control
- ChAT Activity (% of Control) ([2]; compound and THA): 121 + 18.8 % of Control
- toxicity to mice (in words) (mice; 1 to 500 mg/kg, observed 5 days): non-toxic to mice
- Survival Rate After 5 days (%) (mice; dose 1 mg/kg): 100%
- Survival Rate After 5 days (%) (mice; dose 5 mg/kg): 100%
- Survival Rate After 5 days (%) (mice; dose 10 mg/kg): 100%
- Survival Rate After 5 days (%) (mice; dose 30 mg/kg): 100%
- Survival Rate After 5 days (%) (mice; dose 100 mg/kg): 100%
- Survival Rate After 5 days (%) (mice; dose 300 mg/kg): 100%
- Survival Rate After 5 days (%) (mice; dose 500 mg/kg): 66.7%
- mean total brain infarct volume ([3]; 20 minute pre-treatment): 122±26 mm^3
- mean total brain infarct volume ([3]; 30 minute post-treatment): 208±40 mm^3
- mean total brain infarct volume ([3]; 60 minute post-treatment): 125±57 mm^3
- mean total brain infarct volume ([3]; 120 minute post-treatment): 133±35 mm^3
- Percent Strial TH Innervation Density (mean ± SEM) (MPTP lesioned mice; MPTP 30 mg/kg IP for 5 days plus compound 10 mg/kg SC): 16.28 ± 0.98%
- recovery of TH-stained dopaminergic neurons (in words) (MPTP lesioned mice; lesioned mice, 10 mg/kg, p<0.001): significant recovery
- % Toxicity (cortical cell cultures; ischemic insult, 100 pM): 66.57 ± 4.38 (n = 5) %
- % Toxicity (cortical cell cultures; ischemic insult, 1 nM): 42.31 ± 9.34 (n = 5) %
- % Toxicity (cortical cell cultures; ischemic insult, 10 nM): 33.08 ± 9.62 (n = 5) %
- % Toxicity (cortical cell cultures; ischemic insult, 100 nM): 30.23 ± 9.43 (n = 5) %
- % Toxicity (cortical cell cultures; ischemic insult, 1 μM): 8.56 ± 8.22 (n = 5) %
- % Toxicity (cortical cell cultures; time of administration: Delayed 30 Minutes): 31.49%
- % Toxicity (cortical cell cultures; time of administration: Exposure & Recovery): 2.54%
- % Toxicity (cortical cell cultures; time of administration: Recovery Only): 9.03%
